Source: the CheMixHub viscosity set

Assay: xn = mol fraction of the nth substance listed

BrC(Br)Br + COC(C)=O
viscosity [mPa·s], 101 kPa
Conditions	x1 = 0.0997	x1 = 0.1981	x1 = 0.2985	x1 = 0.406	x1 = 0.5052	x1 = 0.6046	x1 = 0.7016	x1 = 0.7984	x1 = 0.89
298.15 K	0.4806	–	0.7148	0.8716	1.039	1.215	1.403	1.6	1.783
303.15 K	0.4671	0.5871	0.6791	0.8247	0.9763	1.141	1.297	1.5	1.671
308.15 K	0.4465	0.5511	0.6431	0.7797	0.9244	1.07	1.207	1.405	1.57
313.15 K	0.4263	0.511	0.6007	0.7368	0.8701	1.009	1.141	1.317	1.471

BrC(Br)Br + COCCO
viscosity [mPa·s], 101.3 kPa
Conditions	x1 = 0.097	x1 = 0.198	x1 = 0.297	x1 = 0.401	x1 = 0.499	x1 = 0.6	x1 = 0.697	x1 = 0.798	x1 = 0.9
298.15 K	1.922	2.097	2.22	2.27	2.245	2.183	2.094	2.003	1.932
303.15 K	1.719	1.872	1.984	2.03	2.014	1.972	1.909	1.842	1.794
308.15 K	1.549	1.68	1.774	1.825	1.817	1.792	1.748	1.702	1.676

CCC(C)(C)OC + CO
298.15 K, 101.33 kPa
Conditions	viscosity [mPa·s]
x1 = 0.005	0.55
x1 = 0.0339	0.554
x1 = 0.0488	0.556
x1 = 0.0714	0.557
x1 = 0.1129	0.555
x1 = 0.1508	0.552
x1 = 0.1987	0.546
x1 = 0.2009	0.546
x1 = 0.2338	0.541
x1 = 0.2861	0.532
x1 = 0.3409	0.524
x1 = 0.379	0.516
x1 = 0.4252	0.508
x1 = 0.4676	0.5
x1 = 0.5142	0.491
x1 = 0.5503	0.486
x1 = 0.6236	0.477
x1 = 0.6574	0.473
x1 = 0.6944	0.468
x1 = 0.7437	0.462
x1 = 0.7936	0.457
x1 = 0.8642	0.45
x1 = 0.9029	0.446

CC12CC3CC(C1)CC(C)(C3)C2 + CCCCCCCCCC
viscosity [mPa·s], 100 kPa
Conditions	x1 = 0.1028	x1 = 0.1981	x1 = 0.3019	x1 = 0.3998	x1 = 0.4996	x1 = 0.6018	x1 = 0.6968	x1 = 0.7904	x1 = 0.895
293.15 K	1.016	1.12	1.253	1.402	1.581	1.828	2.125	2.491	3.031
298.15 K	0.942	1.035	1.154	1.287	1.445	1.665	1.926	2.247	2.719
303.15 K	0.877	0.961	1.069	1.187	1.328	1.526	1.757	2.04	2.456
313.15 K	0.767	0.837	0.926	1.023	1.137	1.295	1.48	1.704	2.032
323.15 K	0.672	0.729	0.797	0.879	0.972	1.098	1.237	1.421	1.676

C=Cc1ccccc1 + CC(=O)N(C)C
viscosity [mPa·s], 101.33 kPa
Conditions	x1 = 0.109	x1 = 0.1994	x1 = 0.2958	x1 = 0.4002	x1 = 0.5004	x1 = 0.6012	x1 = 0.7027	x1 = 0.8005	x1 = 0.9015
298.15 K	0.938	0.936	0.937	0.929	0.921	0.903	0.881	0.851	0.808
303.15 K	0.874	0.873	0.872	0.863	0.857	0.841	0.821	0.795	0.753
308.15 K	0.817	0.818	0.815	0.807	0.8	0.785	0.766	0.742	0.7

CC#N + CCO
viscosity [mPa·s]
Conditions	293.15 K	298.15 K	303.15 K	308.15 K	313.15 K
101 kPa, x1 = 0.0898	–	0.87	0.736	0.632	–
101 kPa, x1 = 0.187	–	0.71	0.606	0.523	–
101 kPa, x1 = 0.2973	–	0.594	0.518	0.454	–
101 kPa, x1 = 0.396	–	0.517	0.455	0.405	–
101 kPa, x1 = 0.4843	–	0.463	0.409	0.364	–
101 kPa, x1 = 0.5987	–	0.416	0.37	0.334	–
101 kPa, x1 = 0.7114	–	0.376	0.342	0.309	–
101 kPa, x1 = 0.8072	–	0.357	0.325	0.298	–
101 kPa, x1 = 0.9139	–	0.345	0.314	0.29	–
101.3 kPa, x1 = 0.1107	–	0.85	0.779	0.715	0.656
101.3 kPa, x1 = 0.2192	–	0.693	0.642	0.589	0.542
101.3 kPa, x1 = 0.3249	–	0.584	0.545	0.499	0.467
101.3 kPa, x1 = 0.4279	–	0.506	0.473	0.444	0.417
101.3 kPa, x1 = 0.5288	–	0.458	0.428	0.405	0.38
101.3 kPa, x1 = 0.6267	–	0.414	0.391	0.377	0.352
101.3 kPa, x1 = 0.7236	–	0.392	0.366	0.347	0.331
101.3 kPa, x1 = 0.8179	–	0.37	0.349	0.333	0.316
101.3 kPa, x1 = 0.9099	–	0.354	0.336	0.317	0.301
101.33 kPa, x1 = 0.04	1.12	–	–	–	–
101.33 kPa, x1 = 0.1	0.9979	–	–	–	–
101.33 kPa, x1 = 0.12	0.939	–	–	–	–
101.33 kPa, x1 = 0.17	0.9065	–	–	–	–
101.33 kPa, x1 = 0.28	0.7033	–	–	–	–
101.33 kPa, x1 = 0.33	0.6415	–	–	–	–
101.33 kPa, x1 = 0.43	0.5585	–	–	–	–
101.33 kPa, x1 = 0.67	0.4418	–	–	–	–
101.33 kPa, x1 = 0.83	0.4001	–	–	–	–

BrC(Br)Br + ClCCCCCl
viscosity [mPa·s], 101 kPa
Conditions	x1 = 0.0978	x1 = 0.197	x1 = 0.2974	x1 = 0.3963	x1 = 0.496	x1 = 0.5975	x1 = 0.6963	x1 = 0.7994	x1 = 0.8972
298.15 K	1.382	1.455	1.538	1.607	1.677	1.748	1.813	1.868	1.924
303.15 K	1.278	1.346	1.423	1.489	1.556	1.624	1.686	1.743	1.803
308.15 K	1.184	1.247	1.32	1.381	1.446	1.507	1.573	1.625	1.687
313.15 K	1.099	1.158	1.232	1.281	1.34	1.401	1.462	1.52	1.578

CC12CC3CC(C1)CC(C)(C3)C2 + CCCCCCCCCCC
viscosity [mPa·s], 100 kPa
Conditions	x1 = 0.1005	x1 = 0.2002	x1 = 0.2999	x1 = 0.4004	x1 = 0.4999	x1 = 0.5996	x1 = 0.7003	x1 = 0.8	x1 = 0.8999
293.15 K	1.278	1.376	1.491	1.628	1.805	2.024	2.319	2.683	3.141
298.15 K	1.173	1.273	1.385	1.492	1.639	1.831	2.087	2.418	2.813
303.15 K	1.083	1.162	1.25	1.37	1.501	1.676	1.901	2.19	2.531
308.15 K	1.003	1.071	1.153	1.259	1.376	1.53	1.735	1.98	2.299
313.15 K	0.936	0.998	1.074	1.166	1.272	1.409	1.589	1.817	2.083
318.15 K	0.872	0.939	1.006	1.084	1.172	1.297	1.461	1.665	1.911
323.15 K	0.815	0.871	0.94	1.008	1.097	1.207	1.348	1.532	1.744

C=Cc1ccccc1 + CO
viscosity [mPa·s], 101.33 kPa
Conditions	x1 = 0.1005	x1 = 0.192	x1 = 0.3007	x1 = 0.4018	x1 = 0.4981	x1 = 0.5994	x1 = 0.7011	x1 = 0.8049	x1 = 0.8981
298.15 K	0.591	0.623	0.65	0.669	0.679	0.686	0.692	0.701	0.706
303.15 K	0.55	0.583	0.608	0.618	0.634	0.642	0.646	0.655	0.661
308.15 K	0.515	0.543	0.569	0.587	0.594	0.598	0.602	0.61	0.617
